Data as given in ChEMBL document CHEMBL1221326, “Synthesis, biological evaluation, and docking studies of novel heterocyclic diaryl compounds as selective COX-2 inhibitors” (Bioorg Med Chem, 2010).

Assays:
[1] = target: T1, Prostaglandin G/H synthase 1 (Ovis aries) (UniProt P05979); assay: Inhibition of sheep COX1 at 10 uM by enzyme immunoassay
T1 sequence (whole entry): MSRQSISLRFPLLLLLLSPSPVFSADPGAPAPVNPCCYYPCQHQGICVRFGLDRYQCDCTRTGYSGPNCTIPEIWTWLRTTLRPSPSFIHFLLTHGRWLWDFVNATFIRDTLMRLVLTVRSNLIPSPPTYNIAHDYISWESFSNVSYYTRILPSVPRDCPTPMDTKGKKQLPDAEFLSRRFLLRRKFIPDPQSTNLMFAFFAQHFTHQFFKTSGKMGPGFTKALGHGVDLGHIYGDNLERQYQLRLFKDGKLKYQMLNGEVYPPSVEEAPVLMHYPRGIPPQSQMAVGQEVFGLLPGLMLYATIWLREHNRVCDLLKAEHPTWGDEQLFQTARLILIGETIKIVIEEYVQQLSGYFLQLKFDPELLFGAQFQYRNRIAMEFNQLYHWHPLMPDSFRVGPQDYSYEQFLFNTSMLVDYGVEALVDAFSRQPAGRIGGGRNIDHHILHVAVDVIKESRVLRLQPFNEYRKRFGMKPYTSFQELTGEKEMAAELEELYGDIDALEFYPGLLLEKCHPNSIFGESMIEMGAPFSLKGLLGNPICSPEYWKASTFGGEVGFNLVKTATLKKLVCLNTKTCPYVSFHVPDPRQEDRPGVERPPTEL

[2] = target: T2, Prostaglandin G/H synthase 1 (Ovis aries, UniProt P05979); assay: Inhibition of sheep COX1 by enzyme immunoassay
T2 sequence (P05979 whole entry): T1 sequence (whole entry)

[3] = species: Ovis aries; assay: Selectivity index, ratio of IC50 for sheep COX1 to IC50 for sheep COX2

Row | inhibition [1] [%] | IC50 [2] [nM] | Ratio IC50 [3] | SMILES
1 | 59.8 | 61 | – | COc1ccc(C2=C(c3ccc4c(c3)oc(=O)n4C)COC2=O)cc1
2 | 91.2 | 1000 | – | Cn1c(=O)oc2cc(-c3cc(C(F)(F)F)nn3-c3ccc(Cl)cc3)ccc21
3 | 55.5 | 6000 | 6 | Cn1c(=O)oc2cc(-c3cc(C(F)(F)F)nn3-c3ccc(F)cc3)ccc21
4 | 95.6 | 4 | – | COc1ccc(-n2nc(C(F)(F)F)cc2-c2ccc3c(c2)oc(=O)n3C)cc1
